Measurements taken from patent US6649621B2, “Prevention or reversal of sensorineural hearing loss (SNHL) through biologic mechanisms” (The United States of America as represented by the …, priority 1997, dated 2003).
Entries after “also recorded” stand apart in the source; their conditions may differ.

Assays:
[1] = test system: noise-induced cochlear damage; conditions: cited from earlier work
[2] = test system: noise induced hearing loss; test: Oral rescue agent in an individual with noise induced hearing loss; type: in vivo, human; conditions: 70 mg/kg by mouth, then 35 mg/kg QID for seven days; one patient
Description: FIG. 5 is a bar graph comparing the speech reception threshold values of an individual who suffered noise induced hearing loss before and after administration of an oral rescue agent. FIG. 6 is a bar graph comparing the word discrimination scores of an individual who suffered noise induced hearing loss before and after administration of an oral rescue agent. An Army Infantryman lost […] hearing protection in one ear during a live fire training evolution. […] received treatment in the form of ant initial dose of 70 mg/kg of L-N-acetyl cysteine (LNAC) by mouth followed by 35 mg/kg LNAC by mouth QID for seven days.

[3] = test system: inner and outer hair cells; test: R-PIA on round window membrane, simulated M-16 impulse noise, missing hair cells; type: in vivo, Chinchilla; conditions: 10^-4 M on round window membrane 30 min, 50-salvo volleys, vs saline control ear
[4] = test system: inner and outer hair cells; test: R-PIA on round window membrane, chinchilla 4 kHz octave band noise, inner and outer hair cell losses; type: in vivo; conditions: 10^-4 M on round window membrane
Description: FIG. 1 is a series of graphs which depicts our experimental work with R-PIA in a chinchilla model of SNHL. A 10^−4 M solution of R-PIA was placed on the round window membrane of chinchillas for thirty minutes and saline was placed as a control on round window membrane in the opposite-ear. After thirty minutes the fluids were removed, the surgical sites closed and the animals were exposed to 4 kHz octave band noise at 105 dB SPL for thirty minutes. […] The details of this study have been submitted and recently accepted for publication in a peer-reviewed journal (5).

chinchilla model of SNHL = test: R-PIA on round window membrane, chinchilla 4 kHz octave band noise, evoked potential hearing thresholds; type: in vivo
Description: FIG. 1 is a series of graphs which depicts our experimental work with R-PIA in a chinchilla model of SNHL. A 10^−4 M solution of R-PIA was placed on the round window membrane of chinchillas for thirty minutes and saline was placed as a control on round window membrane in the opposite-ear. After thirty minutes the fluids were removed, the surgical sites closed and the animals were exposed to 4 kHz octave band noise at 105 dB SPL for thirty minutes.

[5] = test system: noise induced permanent hearing loss; test: R-PIA on round window membrane, impulse noise, frequency specific evoked potential threshold shifts; type: in vivo, Chinchilla; conditions: out to 20 days post-exposure
Description: FIGS. 3 & 4 illustrate data from Chinchilla exposed to simulated M-16 rifle fire impulse noise (50-salvo volleys). These animals received R-PIA treatment as outlined above (by the application of a dilute (10^−4 molar) solution of R-PIA directly onto the round window membrane for thirty minutes) with saline as a control on the round window membrane of the opposite ear. FIGS. 3 and 4 depict the percentage of missing inner and outer hair cells quantified in the inner ears of animals euthanized after the noise exposure. […] The results of both these tests show the frequency specific evoked potential threshold shifts from the same Chinchilla prior to and after noise exposure (out to 20 days post-exposure).

[6] = test system: idiopathic sensorineural hearing loss; test: Treatment of individuals with sudden idiopathic sensorineural hearing loss (oral conventional therapy, then topical round window microcatheter); type: in vivo, human; conditions: one patient each
Description: FIG. 7 is a bar graph comparing the speech reception threshold values of an individual who suffered an idiopathic sensorineural hearing loss before and after administration of a topical rescue agent.
FIG. 8 is a bar graph comparing the word discrimination scores of an individual who suffered an idiopathic sensorineural hearing loss before and after administration of a topical rescue agent.
FIG. 9 is a bar graph comparing the speech reception threshold values of another individual who suffered an idiopathic sensorineural hearing loss before and after administration of a topical rescue agent.
FIG. 10 is a bar graph comparing the word discrimination scores of another individual who suffered an idiopathic sensorineural hearing loss before and after administration of a topical rescue agent.
A Army Sergeant noted the sudden onset of a severe hearing loss and tinnitus in their left ear. They were initially given one week of conventional therapy with oral prednisone and a trial of close observation. They had no response to this treatment regimen and two weeks after experiencing the hearing loss they were treated with topical methylprednisolone. The topical methylprednisolone was administered in a round window microcatheter (IntraEar Corporation, Denver, Colo.) via a method developed by our group. The methylprednisolone was given in a concentration of 125 mg/ml. […]

CCCCS(=N)(=O)CCC(N)C(=O)O (stereo not drawn) [BSO, buthionine sulfoximine]
hair cell damage and hearing loss associated with noise exposure ([1]; inhibition of GSH synthesis): enhances the hair cell damage and hearing loss associated with noise exposure

CC(=O)N[C@@H](CS)C(=O)O [LNAC, L-N-acetyl cysteine]
speech reception threshold [2]: complete recovery | word discrimination ability [2]: complete recovery

C[C@H](Cc1ccccc1)Nc1ncnc2c1ncn2[C@@H]1O[C@H](CO)[C@@H](O)[C@H]1O [R-PIA, R-N6-Phenylisopropyl adenosine]
inner and outer hair cell loss [3]: significant reduction of inner and outer hair cell loss | inner hair cell losses ([4]; both conditions): minimal | reduction in outer hair cell loss ([4]; vs saline control ears): fourfold reduction; also recorded: four-fold reduction | permanent hearing threshold shift / permanent hearing loss (chinchilla model of SNHL; 10^-4 M on round window membrane 30 min, vs saline control ears): significantly less permanent hearing threshold shift in R-PIA treated ears compared to saline treated ears at 4, 8 and 16 kHz; also recorded: significant reduction in permanent hearing loss | recovery of hearing thresholds (chinchilla model of SNHL; 10^-4 M on round window membrane 30 min before 4 kHz octave band noise 105 dB SPL, days 0, 1, 2, 4 and 20, vs saline ear): faster and more complete recovery of hearing thresholds | permanent hearing loss ([5]; vs ears that received no treatment): reduction of permanent hearing loss in R-PIA treated ears as compared to ears that received no treatment | permanent hearing loss ([5]; vs saline treated (control) ears, variety of frequencies): reduction of permanent hearing loss in R-PIA treated ears as compared to saline treated (control) ears

Oc1ncnc2[nH]ncc12 [allopurinol]
cochlear action potential and cochlear microphonic threshold shifts ([1]; given before and during damaging noise exposure): attenuate cochlear action potential and cochlear microphonic threshold shifts

C[C@]12C=CC(=O)C=C1CC[C@@H]1[C@@H]2C(=O)C[C@@]2(C)[C@H]1CC[C@]2(O)C(=O)CO [prednisone]
response of sudden hearing loss to conventional therapy [6]: no response
